Measurements: ChEMBL document CHEMBL1201862, “PubChem BioAssay data set” (2004)
The source made the active and inactive calls.

Assays:
[1] = THP-1 cell cytotoxicity, dose response, cytotoxicity control for Vif-APOBEC3G degradation inhibitor project, THP-1 cells (AID 1117359); assay type: functional; conditions: Human immunodeficiency virus 1, THP-1
[2] = Vero cell cytotoxicity, dose response, cytotoxicity control for Vif-APOBEC3G degradation inhibitor project, Vero cells (AID 1117358); assay type: functional; conditions: Human immunodeficiency virus 1, Vero
[3] = molecular target: Paired box protein Pax-8 (Homo sapiens, UniProt Q06710); assay: inhibitors of PAX8-driven TPO luciferase reporter, dose response, RMG-I cells, cherry-pick (AID 687027); assay type: functional, cell-based;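 note: luciferase reporter driven by Pax8 target thyroperoxidase promoter measured by SteadyGlo luminescence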
[4] = non-specific cell cytotoxicity, dose response, cytotoxicity control for PAX8 inhibitor project, plate reader, dry powder samples (AID 743021); assay type: functional, cell-based
[5] = HEK293 cell cytotoxicity, dose response, cytotoxicity control, cherry-picks, set 5 (AID 1053117); assay type: functional, cell-based
[6] = molecular target: NAD-dependent protein deacylase sirtuin-5, mitochondrial (Homo sapiens, UniProt Q9NXA8); assay: SIRT5 deacylase inhibitors, dose response, biochemical, fluorescence imaging, cherry-pick, set 6 (AID 720597)
[7] = system: HeLa; assay: HeLa cell cytotoxicity, dose response, cytotoxicity control, ATP luminescence, cherry-pick samples (AID 687004); assay type: functional, cell-based; conditions: Homo sapiens
[8] = NIH:OVCAR-3 ovarian cancer cell cytotoxicity, dose response, PAX8 inhibitor project, plate reader, dry powder samples (AID 743044); assay type: functional, cell-based
[9] = IGROV1 ovarian cancer cell cytotoxicity, dose response, PAX8 inhibitor project, plate reader, dry powder samples (AID 743043); assay type: functional, cell-based; conditions: IGROV-1
[10] = HEK293T cytotoxicity, dose response, cytotoxicity control for miR-122 modulator project, cell-based, activator set, cherry-pick (AID 720690); assay type: functional;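 note: HEK293T human cells scored for general mammalian cytotoxicity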
[11] = P. falciparum 3D7-ScDHODH growth inhibitors, dose response, SYBR Green, dry powder samples (AID 1159570); assay type: functional, cell-based;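 note: parasite growth measured after 72 hours of compound exposure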
[12] = HepG2 cell cytotoxicity, dose response, cytotoxicity control, plate reader, dry powder samples (AID 1159569); assay type: functional, cell-based;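 note: inhibitor potency with signal falling toward the positive control level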
[13] = P. falciparum Dd2 growth inhibitors, dose response, SYBR Green, cherry-picked samples (AID 1159567); assay type: functional, cell-based
[14] = P. falciparum Dd2 growth inhibitors, dose response, SYBR Green, dry powder samples (AID 1159566); assay type: functional, cell-based;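 note: potency for growth inhibition with lower SYBR green DNA signal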
[15] = P. falciparum ATP4 D1247Y mutant growth inhibitors, dose response, NITD609-resistant line, SYBR Green, dry powder (AID 1159571); assay type: functional, cell-based;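 note: parasites synchronized at ring stage by sorbitol before testing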
[16] = inhibitors of HIV Env-driven cell fusion, dose response, cherry-pick (AID 652057); assay type: functional, cell-based
[17] = CEM21 lymphoblast cell cytotoxicity, dose response, cytotoxicity control for viral fusion inhibitor project, CellTiter-Glo luminescence, cherry-picked (AID 652042); assay type: functional, cell-based;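 note: potency for signal decrease meaning cytotoxicity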
[18] = ZM109 Env clade C HIV-1 fusion inhibitors, dose response, HeLa effector, CEM target cells, luciferase, cherry-pick (AID 652058); assay type: functional, cell-based
[19] = off-target signal loss in HeLa-CEM21 co-culture – HeLa F-luc CTL cells, cherry-picked, counter-screen for HIV-1 Env fusion inhibitor project, dose response (AID 652040); assay type: functional, cell-based;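 note: potency for signal decrease marking cytotoxic or nonspecific inhibition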
[20] = inhibitors of clade B AD8 Env fusion, dose response, cell-based, cherry-pick (AID 652062); assay type: functional;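 note: luciferase signal from cell-cell fusion driven by HIV-1 clade B AD8 Env; potency is for inhibitors of fusion seen as a drop in luminescence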

Paired box protein Pax-8, sequence (Q06710 whole entry): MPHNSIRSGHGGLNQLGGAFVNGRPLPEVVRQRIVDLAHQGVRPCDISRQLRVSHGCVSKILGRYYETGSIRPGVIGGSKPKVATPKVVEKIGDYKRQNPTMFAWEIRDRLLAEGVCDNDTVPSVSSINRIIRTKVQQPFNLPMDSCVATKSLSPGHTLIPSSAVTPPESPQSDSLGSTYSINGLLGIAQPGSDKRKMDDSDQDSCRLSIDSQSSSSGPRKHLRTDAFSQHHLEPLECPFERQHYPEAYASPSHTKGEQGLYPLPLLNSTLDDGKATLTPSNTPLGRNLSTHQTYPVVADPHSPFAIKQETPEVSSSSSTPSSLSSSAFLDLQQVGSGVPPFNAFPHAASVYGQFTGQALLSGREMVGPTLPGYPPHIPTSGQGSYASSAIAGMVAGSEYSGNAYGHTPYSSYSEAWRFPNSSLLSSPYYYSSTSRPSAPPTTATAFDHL
NAD-dependent protein deacylase sirtuin-5, mitochondrial, sequence (Q9NXA8 whole entry): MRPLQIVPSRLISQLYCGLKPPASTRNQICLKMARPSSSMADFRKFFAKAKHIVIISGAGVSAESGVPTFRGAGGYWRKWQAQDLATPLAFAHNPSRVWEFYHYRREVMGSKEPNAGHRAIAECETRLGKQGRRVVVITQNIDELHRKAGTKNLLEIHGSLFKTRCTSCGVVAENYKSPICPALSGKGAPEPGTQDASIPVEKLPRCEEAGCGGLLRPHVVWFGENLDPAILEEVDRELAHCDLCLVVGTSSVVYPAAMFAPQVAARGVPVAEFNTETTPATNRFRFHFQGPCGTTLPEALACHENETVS

CCn1c(=O)oc2cc(NC(=O)CCl)ccc21
CC50 [1]: > 40 µM (active)

Cc1ccc(Nc2nc(C(=O)NCc3ccco3)cs2)cc1
CC50 [2]: > 40 µM (active)

CC1(C)CC(=O)C=C(C#CC2(O)CCCCC2)C1
AC50 [3]: 4.34 µM (active) | AC50 [4]: 64.8 µM (active)

C[C@H](CO)N1C[C@H](C)[C@H](CN(C)C(=O)c2cccc(F)c2)Oc2ncc(-c3ccccc3)cc2C1=O
AC50 [5]: > 52 µM (inactive)

CN(C)C(=O)c1cccc(-c2ccccc2[C@H]2[C@@H](C#N)N(C(=O)C3CC3)[C@@H]2CO)c1
AC50 [6]: > 32 µM (inactive)

Cc1ccc2nc(C)c3c(c2c1)OC(C(C)(Cl)Br)C3 (centres undefined)
AC50 [7]: > 52 µM (inactive)

O=C(Nc1cccc(F)c1)N1CCCCN2[C@H](CO)[C@@H](c3ccc(-c4ccccc4F)cc3)[C@H]2C1
AC50 [3]: 10.2 µM (active) | AC50 [8]: 21.9 µM (active) | AC50 [9]: 50.9 µM (active) | AC50 [4]: 57.4 µM (active)

O=C1/C(=C\c2ccco2)CCC/C1=C\c1ccco1
CC50 [1]: > 40 µM (active)

C[C@H]1CN([C@@H](C)CO)S(=O)(=O)c2ccc(C#Cc3ccccc3F)cc2O[C@@H]1CN(C)C(=O)c1ccc2c(c1)OCO2
AC50 [10]: 19.5 µM (active) | AC50 [11]: 2.06 µM (active) | AC50 [12]: 33.7 µM (active) | AC50 [13]: 1.66 µM (active) | AC50 [14]: 1.55 µM (active) | AC50 [15]: 1.71 µM (active)

COc1ccc(N=C(S)NCCc2ccccc2OC)c(OC)c1
CC50 [2]: > 40 µM (active)

COC(=O)N1[C@H](C)C=C[C@]1(Cc1ccccc1)C(=O)NCCCNc1ncc(C(F)(F)F)cc1Cl
AC50 [16]: 3.42 µM (active) | AC50 [17]: 48.6 µM (active) | AC50 [18]: 6.11 µM (active) | AC50 [19]: 6.96 µM (active) | AC50 [20]: 11.9 µM (active)
